# Source: patent US20250064789A1, “KETOAMIDE DERIVATIVES AND PHARMACEUTICAL USES THEREOF” (priority 2022, published 2025)
# Target: recombinant SARS-CoV-2 M^pro (Severe acute respiratory syndrome coronavirus 2 (2019-nCoV) (SARS-CoV-2), UniProt P0DTD1)
# Assay: Inhibition of SARS-CoV-2 M^pro enzyme activity (fluorescent substrate assay)
# Assay type: biochemical
# Conditions: inhibition of SARS-CoV-2 M^pro enzyme activity; values given in μM; read-out: IC50
row,Compound,IC50 [µM]
1,O=C(Cn1cc(-c2ccc(OC(F)(F)F)cc2)cn1)N[C@H](Cc1ccccc1)C(=O)C(=O)NCc1nccs1 [Compound 495],2.27 ± 0.09

# Same assay, conditions: inhibition of SARS-CoV-2 M^pro enzyme activity; values in nM; read-out: IC50
row,Compound,IC50 [µM]
1,O=C(Cn1cc(-c2ccccc2)cn1)N[C@H](Cc1ccccc1)C(=O)C(=O)NCc1nccs1 [Compound 491],0.216 ± 0.0073
2,O=C(Cn1cc(-c2cccc(F)c2)cn1)N[C@H](Cc1ccccc1)C(=O)C(=O)NCc1nccs1 [Compound 492],0.0663 ± 0.0061
3,O=C(Cn1cc(-c2ccc(F)nc2)cn1)N[C@H](Cc1ccccc1)C(=O)C(=O)NCc1nccs1 [Compound 493],0.4515 ± 0.0023
4,O=C(Cn1cc(-c2cccc(OC(F)(F)F)c2)cn1)N[C@H](Cc1ccccc1)C(=O)C(=O)NCc1nccs1 [Compound 494],0.0825 ± 0.0037
5,N#Cc1cccc(-c2cnn(CC(=O)N[C@H](Cc3ccccc3)C(=O)C(=O)NCc3nccs3)c2)c1 [Compound 496],0.077 ± 0.0041
6,O=C(Cn1cc(-c2ccc(F)c(Cl)c2)cn1)N[C@H](Cc1ccccc1)C(=O)C(=O)NCc1nccs1 [Compound 497],0.036 ± 0.0024
7,O=C(Cn1cc(-c2ccc(F)c(C(F)(F)F)c2)cn1)N[C@H](Cc1ccccc1)C(=O)C(=O)NCc1nccs1 [Compound 498],0.103 ± 0.0053
8,Cc1nn(CC(=O)N[C@H](Cc2ccccc2)C(=O)C(=O)NCc2nccs2)c(C)c1-c1ccc(F)c(Cl)c1 [Compound 499],0.0329 ± 0.0015
9,O=C(Cn1cc(-c2ccc(F)c(Cl)c2)c(C(F)(F)F)n1)N[C@H](Cc1ccccc1)C(=O)C(=O)NCc1nccs1 [Compound 500],0.0389 ± 0.0005
10,O=C(Cn1cc(-c2cc(F)cc(F)c2)cn1)N[C@H](Cc1ccccc1)C(=O)C(=O)NCc1nccs1 [Compound 502],0.047 ± 0.0005
11,O=C(Cn1cc(-c2cc(F)c(F)c(F)c2)cn1)N[C@H](Cc1ccccc1)C(=O)C(=O)NCc1nccs1 [Compound 504],0.0477 ± 0.0009
12,O=C(Cn1cc(-c2c(F)ccc(F)c2F)cn1)N[C@H](Cc1ccccc1)C(=O)C(=O)NCc1nccs1 [Compound 505],0.239 ± 0.004
13,O=C(Cn1cc(-c2cc(F)c(F)cc2F)cn1)N[C@H](Cc1ccccc1)C(=O)C(=O)NCc1nccs1 [Compound 506],0.105 ± 0.0029
14,O=C(Cn1cc(-c2cc(F)ccc2F)cn1)N[C@H](Cc1ccccc1)C(=O)C(=O)NCc1nccs1 [Compound 507],0.0126 ± 0.0004
15,Cc1nn(CC(=O)N[C@H](Cc2ccccc2)C(=O)C(=O)NCc2nccs2)c(C)c1C1CCC(F)(F)CC1 [Compound 509],0.151 ± 0.0066
16,O=C(Cn1cc(C2CCC(F)(F)CC2)c(C(F)(F)F)n1)N[C@H](Cc1ccccc1)C(=O)C(=O)NCc1nccs1 [Compound 510],0.137 ± 0.0016
17,"O=C(Cc1csc(C2CCC(F)(F)CC2)n1)N[C@H](Cc1ccccc1)C(=O)C(=O)NCc1nccs1 [Compound 511, (R)-3-(2-(2-(4,4-difluorocyclohexyl)thiazole-4-yl)acetamido)-2-oxo-4-phenyl-N-(thiazole-2-ylmethyl)butyramide]",0.0304 ± 0.0021
18,O=C(NCc1nccs1)C(=O)[C@@H](Cc1ccccc1)NC(=O)C1(n2ccc(C3CCC(F)(F)CC3)n2)CC1 [Compound 512],0.0221 ± 0.0005
19,O=C(Cn1cc(C2CCC(F)(F)CC2)cn1)N[C@H](Cc1ccccc1)C(=O)C(=O)NCc1nccs1 [Compound 513],0.0304 ± 0.0008
20,N#Cc1cc(F)cc(-c2nc(CC(=O)N[C@H](Cc3ccccc3)C(=O)C(=O)NCc3nccs3)cs2)c1 [Compound 514],0.0568 ± 0.0004

row,Compound,IC50 [µM]
1,Cc1cc(-c2cc(Cl)cc(C#N)c2)nn1CC(=O)N[C@H](Cc1ccccc1)C(=O)C(=O)NCc1nccs1 [Compound 515],0.0262 ± 0.0003
2,"O=C(Cc1noc(-c2ccc(F)c(F)c2)n1)N[C@H](Cc1ccccc1)C(=O)C(=O)NCc1nccs1 [Compound 516, (R)-3-(2-(5-(3,4-difluorophenyl)-1,2,4-oxadiazol-3-yl)acetylamino)-2-oxo-4-phenyl-N-(thiazole-2-ylmethyl)butyramide]",0.033 ± 0.0019
3,Cc1cc(-c2cc(Cl)cc(C#N)c2)nn1C1(C(=O)N[C@H](Cc2ccccc2)C(=O)C(=O)NCc2nccs2)CC1 [Compound 517],0.0562 ± 0.0032
4,"N#Cc1cc(F)cc(N2CC(=O)N(CC(=O)N[C@H](Cc3ccccc3)C(=O)C(=O)NCc3nccs3)C2=O)c1 [Compound 518, (R)-3-(2-(3-(3-cyano-5-fluorophenyl)-2,5-dioxoimidazolidin-1-yl)acetylamino)-2-oxo-4-phenyl-N-(thiazole-2-ylmethyl) butyramide]",0.2485 ± 0.0014
5,O=C(CN1C(=O)CN(c2ccc(F)c(Cl)c2)C1=O)N[C@H](Cc1ccccc1)C(=O)C(=O)NCc1nccs1 [Compound 519],0.0327 ± 0.0031
6,O=C(Cc1noc(-c2cc(F)ccc2F)n1)N[C@H](Cc1ccccc1)C(=O)C(=O)NCc1nccs1 [Compound 520],0.1613 ± 0.0012
7,O=C(Cc1noc(-c2ccc(Cl)cc2F)n1)N[C@H](Cc1ccccc1)C(=O)C(=O)NCc1nccs1 [Compound 521],0.441 ± 0.0045
8,O=C(CN1C(=O)CN(c2cc(F)c(F)c(F)c2)C1=O)N[C@H](Cc1ccccc1)C(=O)C(=O)NCc1nccs1 [Compound 522],0.0747 ± 0.0042
9,O=C(CN1C(=O)CN(c2cc(F)cc(F)c2)C1=O)N[C@H](Cc1ccccc1)C(=O)C(=O)NCc1nccs1 [Compound 523],0.123 ± 0.0051
10,O=C(Cc1noc(-c2ccc(F)c(C(F)(F)F)c2)n1)N[C@H](Cc1ccccc1)C(=O)C(=O)NCc1nccs1 [Compound 524],0.0328 ± 0.0032
11,O=C(CN1C(=O)CN(c2ccc(F)cc2)C1=O)N[C@H](Cc1ccccc1)C(=O)C(=O)NCc1nccs1 [Compound 525],0.0845 ± 0.0018
12,O=C(Cc1noc(-c2ccc(F)c(Cl)c2)n1)N[C@H](Cc1ccccc1)C(=O)C(=O)NCc1nccs1 [Compound 526],0.0284 ± 0.0015
13,O=C(CN1C(=O)CN(c2cccc(Cl)c2)C1=O)N[C@H](Cc1ccccc1)C(=O)C(=O)NCc1nccs1 [Compound 527],0.0443 ± 0.0011
14,CC(C)(C(=O)N[C@H](Cc1ccccc1)C(=O)C(=O)NCc1nccs1)n1cc(-c2cccc(F)c2)cn1 [Compound 528],0.0508 ± 0.001
15,CC(C)(C(=O)N[C@H](Cc1ccccc1)C(=O)C(=O)NCc1nccs1)n1cc(-c2cccc(OC(F)(F)F)c2)cn1 [Compound 529],0.2245 ± 0.0013
16,O=C(Cn1nc(-c2ccc(F)cc2)cc1C(F)(F)F)N[C@H](Cc1ccccc1)C(=O)C(=O)NCc1nccs1 [Compound 530],0.0325 ± 0.0011
17,O=C(NCc1nccs1)C(=O)[C@@H](Cc1ccccc1)NC(=O)n1nc(C(F)(F)F)cc1-c1ccc(F)cc1 [Compound 531],0.598 ± 0.0028
18,"O=C(Cn1cc(-c2ccccc2F)nn1)N[C@H](Cc1ccccc1)C(=O)C(=O)NCc1nccs1 [Compound 532, (R)-3-(2-(4-(2-fluorophenyl)-1H-1,2,3-triazol-1-yl)acetamido)-2-oxo-4-phenyl-N-(thiazole-2-ylmethyl)butyramide]",0.6245 ± 0.0026
19,O=C(Cc1noc(C2CCC(F)(F)CC2)n1)N[C@H](Cc1ccccc1)C(=O)C(=O)NCc1nccs1 [Compound 533],0.069 ± 0.0069
20,CC[C@@H](NC(=O)C1CCC(F)(F)CC1)C(=O)N[C@H](Cc1ccccc1)C(=O)C(=O)NCc1nccs1 [Compound 535],0.0357 ± 0.00017

row,Compound,IC50 [µM]
1,CC(C)[C@@H](NC(=O)C1CCC(F)(F)CC1)C(=O)N[C@H](Cc1ccccc1)C(=O)C(=O)NCc1nccs1 [Compound 536],0.0248 ± 0.0003
2,CC(C)(NC(=O)C1CCC(F)(F)CC1)C(=O)N[C@H](Cc1ccccc1)C(=O)C(=O)NCc1nccs1 [Compound 537],0.0895 ± 0.0015
3,O=C(NCc1nccs1)C(=O)[C@@H](Cc1ccccc1)NC(=O)C1(NC(=O)C2CCC(F)(F)CC2)CC1 [Compound 538],0.0335 ± 0.0015
4,O=C(NCc1nccs1)C(=O)[C@@H](Cc1ccccc1)NC(=O)C1(NC(=O)C2CCC(F)(F)CC2)CCC1 [Compound 539],0.0218 ± 0.0005
5,O=C(NCc1nccs1)C(=O)[C@@H](Cc1ccccc1)NC(=O)C1(NC(=O)C2CCC(F)(F)CC2)CC(F)(F)C1 [Compound 540],0.0269 ± 0.0001
6,O=C(NCc1nccs1)C(=O)[C@@H](Cc1ccccc1)NC(=O)C1(NC(=O)C2CCC(F)(F)CC2)CCCC1 [Compound 541],0.0518 ± 0.0014
7,O=C(NCc1nccs1)C(=O)[C@@H](Cc1ccccc1)NC(=O)C1(NC(=O)C2CCC(F)(F)CC2)CCCCC1 [Compound 542],0.0524 ± 0.007
8,O=C(NCc1nccs1)C(=O)[C@@H](Cc1ccccc1)NC(=O)[C@H](NC(=O)C1CCC(F)(F)CC1)C1CC1 [Compound 543],0.107 ± 0.0013
9,COC[C@@H](NC(=O)C1CCCC(F)(F)C1)C(=O)N[C@H](Cc1ccccc1)C(=O)C(=O)NCc1cscn1 (stereo partly shown) [Compound 544],0.0225 ± 0.0009
10,O=C(NCc1nccs1)C(=O)[C@@H](Cc1ccccc1)NC(=O)C1(NC(=O)C2CCCC(F)(F)C2)CC(F)(F)C1 (stereo partly shown) [Compound 545],0.0269 ± 0.0002
11,O=C(NCc1nccs1)C(=O)[C@@H](Cc1ccccc1)NC(=O)C1(NC(=O)C2CCC(F)(F)C2)CC(F)(F)C1 (stereo partly shown) [Compound 546],0.0717 ± 0.0071
12,O=C(CC1CC(F)(F)C1)NC1(C(=O)N[C@H](Cc2ccccc2)C(=O)C(=O)NCc2nccs2)CC(F)(F)C1 [Compound 547],0.0251 ± 0.001
13,COC[C@@H](NC(=O)N1CCCC(F)(F)C1)C(=O)N[C@H](Cc1ccccc1)C(=O)C(=O)NCc1nccs1 [Compound 548],0.4104 ± 0.001
14,COC[C@@H](NC(=O)NC1CC(F)(F)C1)C(=O)N[C@H](Cc1ccccc1)C(=O)C(=O)NCc1nccs1 [Compound 549],0.0212 ± 0.0006
15,COC[C@@H](NC(=O)NC1CCC(F)(F)CC1)C(=O)N[C@H](Cc1ccccc1)C(=O)C(=O)NCc1nccs1 [Compound 551],0.0233 ± 0.0031
16,COC[C@@H](NC(=O)N1CC(F)(F)C(F)(F)C1)C(=O)N[C@H](Cc1ccccc1)C(=O)C(=O)NCc1nccs1 [Compound 552],0.2009 ± 0.0016
17,COC[C@@H](NC(=O)OC1CC(F)(F)C1)C(=O)N[C@H](Cc1ccccc1)C(=O)C(=O)NCc1nccs1 [Compound 553],0.0188 ± 0.0046
18,C[C@@H](NCC1CCC(F)(F)CC1)C(=O)N[C@H](Cc1ccccc1)C(=O)C(=O)NCc1nccs1 [Compound 554],0.8901 ± 0.0013
19,O=C(NCc1nccs1)C(=O)[C@@H](Cc1ccccc1)NC(=O)C1CC1C(=O)NC1CC(F)(F)C1 (stereo partly shown) [Compound 555],0.4773 ± 0.0041
20,CC1(C)C(C(=O)NC2CC(F)(F)C2)C1C(=O)N[C@H](Cc1ccccc1)C(=O)C(=O)NCc1nccs1 (stereo partly shown) [Compound 556],0.2035 ± 0.0006
